Target: T1, HsaRARα LBD (Homo sapiens, UniProt P10276)
T1 construct: gene RARA; glutathione S-transferase fusion (pGEX-4T-1), E. coli BL21(DE3)
T1 sequence (P10276 183-417 limits assumed): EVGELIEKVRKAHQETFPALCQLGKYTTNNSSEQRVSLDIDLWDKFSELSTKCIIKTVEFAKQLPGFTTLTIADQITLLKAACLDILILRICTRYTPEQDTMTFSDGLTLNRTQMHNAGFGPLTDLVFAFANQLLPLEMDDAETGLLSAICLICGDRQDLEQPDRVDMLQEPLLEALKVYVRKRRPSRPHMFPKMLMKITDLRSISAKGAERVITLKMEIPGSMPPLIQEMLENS
Assay: competitive radioligand binding, hydroxyapatite precipitation
Details: 4 °C, labelled compound, positive control

| Structure (SMILES) | competitive radioligand binding, hydroxyapatite precipitation (10 nM [3H]ATRA or [3H]9cisRA displaced by unlabelled 9cisRA) | competitive radioligand binding, hydroxyapatite precipitation (10 nM [3H]ATRA displaced by unlabelled ATRA) |
| --- | --- | --- |
| CC1=C(/C=C/C(C)=C\C=C\C(C)=C\C(=O)O)C(C)(C)CCC1 [9cisRA] | Competition by ATRA and 9cisRA with [^3H]ATRA and [^3H]9cisRA for binding to the LBD | – |
| CC1=C(/C=C/C(C)=C/C=C/C(C)=C/C(=O)O)C(C)(C)CCC1 [ATRA] | – | Competition by ATRA and 9cisRA with [^3H]ATRA and [^3H]9cisRA for binding to the LBD |

Reference: publication PMC6947571, “An Orthologue of the Retinoic Acid Receptor (RAR) Is Present in the Ecdysozoa Phylum Priapulida” (Genes, 2019)
